Compound `CCCC1NS(=O)(=O)N(COC(=O)c2c(Cl)cccc2Cl)C1=O` (configuration not stated) registered a melting point of 95 to 97 °C. Compound `NCc1ccc(-c2nc(-c3ccccc3)c(-c3ccncc3)[nH]2)cc1` registered a melting point of 214 to 215 °C.

For the compound `O=C1NC(=O)C(Cc2ccc(OCCON=Cc3cncc(-c4ccccc4)c3)cc2)S1` (configuration not stated), the melting point lay in the range of 160 to 161 °C. For `CNc1cc(Br)nc(S(=O)(=O)c2ccc(N)cc2)c1` the value was 158 to 160 °C.

The compound `CONC(=O)Nc1ccc(-c2sc3c(c2CNC(C)c2ccccc2)c(=O)n(-c2ccc(F)cn2)c(=O)n3Cc2c(F)cccc2F)cc1` (configuration not stated) registered a melting point of 128 to 130 °C.

In turn, `NC(=O)c1ccc(F)c2c1CC(N(CCCc1c[nH]c3c(Cl)cccc13)C1CCC1)CO2` (configuration not stated) gave a melting point of 154 to 163 °C. The compound `CCOC(=O)c1cc(NC(=O)C(CS)Cc2ccc(Cl)cc2)c[nH]1` (configuration not stated) showed a melting point of 140 to 143 °C. Then `CC(O)c1ccc2nc(NC(=O)c3ccc(C(C)(C)C)cc3)cn2c1` (configuration not stated), with 249 to 250 °C; and `COc1ccc(S(=O)(=O)N2CC3CCC(CC3)C2)c2ccccc12`, with 168 to 170 °C. For `Cc1cn2c(n1)Cc1cc3c(cc1C(c1ccc(N)cc1)=N2)OCO3` the value was 165 to 166 °C. Then `O=C1Nc2ccccc2C12COc1ccc3c(c12)N(Cc1ncccc1C(F)(F)F)ON3` (configuration not stated), with 212 to 215 °C; and `CCOC(=O)c1cn(-c2cccc(Oc3ccc(Cl)cc3)c2)cn1`, with 112 to 113 °C. Consider `CN1c2ccccc2-c2nc3ccccc3c3cccc1c23`, for which the melting point fell in the range of 212 to 214 °C. For `CCCCCCC/C=C/C(=O)NCCN1CCCC1` the value was 56 to 58 °C; for `CC(=O)n1cc(C2=C(c3cn(C)c4ccccc34)C(=O)NC2=O)c2ccccc21`, 252 to 253 °C; for `CCCOC(=O)C(=C1SC=CS1)S(=O)(=O)C(C)C`, 78 to 79 °C.

For the compound `Cc1cc2nncc(O)c2cc1C`, the melting point is over 260 °C. In turn, `COc1cccc(CCNC(=O)c2nc(N)sc2-c2ccncc2)c1OC` yielded a melting point of 167 to 168 °C. Consider `CN(CCF)c1ccc2cc(-c3nc4ccccc4s3)c(=O)oc2c1`, for which the melting point fell in the range of 231 to 233 °C. The compound `CNc1cc(F)ccc1C(C)=O` yielded a melting point of 52 to 53 °C. For `CCCn1cnc(NC)c1C(=O)NCCCCCCOc1ccc(Cl)cc1` the value was 66 to 67 °C. `CN1CCC(c2ccc(F)cc2)(C(C)(C)O)CC1` displayed a melting point of 165 to 166 °C.

`CCN1c2ncc(CCc3ccncc3)cc2C(=O)Nc2c(C)ccnc21` returned a melting point of 176 to 178 °C. In turn, `N#Cc1ccc(N=C=O)cc1Cl` gave a melting point of 198 to 201 °C.

With `Cc1ccc(C2COc3c(C)c(C)c(NC(=O)CC(C)(C)C)c(C)c32)nc1` (configuration not stated), the melting point was in the range of 170 to 171 °C.

Compound `Cn1ncnc1COc1nn2c(-c3ccccc3F)nncc2c1I` registered a melting point of 218 to 219 °C.

Compound `CC(/C=C/CC(C)c1cc(C(C)(C)C)cc(C(C)(C)C)c1)=C\C(=O)O` (configuration not stated) came in with a melting point of 127 to 128 °C. With `Cn1nc(N)c2c(=O)n(-c3ccccc3)c3ncccc3c21`, the melting point was over 300 °C. Then `CC(=O)c1cccc(NC=O)c1`, with 100 to 102 °C; and `CC(C)(C)OC(=O)NC(C)(C)c1ccc(-c2nc(Nc3ccc(OCCO)cc3)ncc2C#N)cc1`, with 126 to 127 °C. For `CC(C)(C)Sc1cccc(-c2nc(=O)c3ccccc3s2)n1` the value was 153 to 154 °C; for `Cn1ncnc1COc1nc2c(cc1C1CCC1)nnn2-c1c(F)cccc1F`, 140 to 144 °C; for `COc1ccc2[nH]cc(CC(=O)N3CCN(c4ccc(N)cc4)CC3)c2c1`, 119 to 120 °C. `COC1OCC[C@@H]1NC(=O)[C@H](CC(C)C)NC(=O)[C@H](CC(C)C)NC(=O)[C@H](CC(C)C)NC(=O)c1ccc2c(c1)Nc1ccccc1S2` (some centres not stated) displayed a melting point of 164 to 165 °C. Compound `O=[N+]([O-])c1ccc2nc(Cl)nc(-c3ccccc3Cl)c2c1` yielded a melting point of 228 °C. On to `CC1(C)Cc2c(C(=O)N3CCCC3)sc(Sc3ccccc3)c2-c2oncc21`, for which the melting point was in the range of 49 to 52 °C. Regarding `C=CCN1C(=O)C=C(NC2c3cc4c(cc3C(c3cc(OC)c(O)c(OC)c3)C3C(=O)OCC23)OCO4)C1=O` (configuration not stated), the melting point lay in the range of 180 to 183 °C. For `CN(C(=O)C(F)(F)F)N1CCc2ccccc2C(Oc2ccc(C(F)(F)F)cc2)C1` (configuration not stated) the value was 210 to 212 °C; for `N#CC(Cc1ccccc1)=NNc1ccc([N+](=O)[O-])cc1`, 158 to 160 °C. For `COC(=O)CCCOc1cc(C(=O)O)ccc1NC(=O)NC(=O)c1cc(F)c(F)cc1Cl` the value was 227 °C.

`CC(C)(C)c1cc(C2=CCSCC2)c(O)c(C(C)(C)C)c1` returned a melting point of 115 to 119 °C. `N=C(N)c1ccc(O)c(C(=O)c2ccccc2)c1` displayed a melting point of 186 to 189 °C. Then `COC(=O)c1ccc(N2CCCC2CO)cc1N` (configuration not stated), with 113 to 115 °C; and `Cc1cc(C)nc(NC(=O)c2ccn3c2CSC3c2cccnc2)c1` (configuration not stated), with 171 °C.

The compound `CC(=O)C(=Cc1ccc(Cl)c(Cl)c1)C(C)=O` showed a melting point of 73 °C. For `O=C(Nc1c(OCc2ccccc2)cccc1C(=O)O)c1ccccc1` the value was 114 to 116 °C; for `CC(C)NC(=O)c1ccc([N+](=O)[O-])cc1`, 152 to 154 °C. `CCOC(=O)c1csc2cc(OC)ccc12` returned a melting point of 68 to 69 °C. Take `O=C(NC1CCCc2c(O)cccc21)c1cccc(Cl)c1O` (configuration not stated): the melting point lay in the range of 148 to 151 °C. Then `O=c1[nH]cnc2c(CN[C@H](CO)[C@H](O)CO)c[nH]c12`, with 230 °C; and `COc1cc(C2CCN(CC(N)=O)CC2)ccc1Nc1ncc2ccc(-c3cccc(S(=O)(=O)NC(C)(C)C)c3)n2n1`, with 250 to 252 °C; and `Cc1cc(C=CC#N)cc(Oc2c(C(C)C)c(=O)[nH]c(=O)n2Cc2ccnc(N3C(=O)c4ccccc4C3=O)c2)c1`, with 229 to 231 °C. Then `CCCCC1c2sccc2CCN1CCNC(=O)c1ccc(NS(C)(=O)=O)cc1` (configuration not stated), with 98 to 105 °C. Then `CC(=O)OC1CC2C3CCC4=CC(=O)CCC4(C)C3CCC2(C)C1N(C)C(=O)C(F)(F)F` (configuration not stated), with 173 to 174 °C; and `CCOC(=O)C[C@@H](NC(=O)/C=C/S(=O)(=O)c1ccccc1)C(=O)OCC`, with 112 to 115 °C; and `COc1ccc(CNc2nc(NCc3ccc(C(O)C(F)(F)F)cc3)nc3ncccc23)cc1OC` (configuration not stated), with 121 to 122 °C. Take `Cc1ccc(S(=O)(=O)OCC(=O)C(=NO)C(=O)OC(C)(C)C)cc1`: the melting point is 106 to 108 °C. For `FC(F)(F)c1ccc(-c2ncc(CCl)s2)cc1` the value was 55 to 57 °C.

Take `CN=C(NC#N)NCCSCc1ncccc1Br`: the melting point is 114 to 116 °C. Take `CCOC(=O)c1c(-c2ccccc2Cl)c2cc(CC)ccc2[nH]c1=O`: the melting point was 199 to 200 °C. For `COc1cc(OC)c2c(=O)[nH]c(-c3cccc(OCCO)c3)nc2c1` the value was 245 to 246 °C. For the compound `CCNC(=O)c1ccc(CCN2CC=C(c3c[nH]c(-c4ccc(F)cc4)c3-c3ccncc3)CC2)cc1`, the melting point lay in the range of 228 to 230 °C.

Broadly, the melting point is the temperature, or range, at which the solid turns liquid.

For the origin of these results see a melting point compilation (Tetko et al.; mined from patent text by program, amines drawn as free bases though some values may be those of a salt).
